# Legend:
# hGSTP1-1 = hGSTP1-1 (Homo sapiens, UniProt P09211); experiment: Specific activity / enzyme kinetics of GST towards compounds in presence of GSH; format: biochemical; conditions: compound 50 µM, 37 °C
# hGSTM1-1 = biological target: T1, hGSTM1-1 (Homo sapiens, UniProt P09488); experiment: as above; format: biochemical; conditions: compound 50 µM, 37 °C
# T1 sequence (P09488 2-218 limits assumed): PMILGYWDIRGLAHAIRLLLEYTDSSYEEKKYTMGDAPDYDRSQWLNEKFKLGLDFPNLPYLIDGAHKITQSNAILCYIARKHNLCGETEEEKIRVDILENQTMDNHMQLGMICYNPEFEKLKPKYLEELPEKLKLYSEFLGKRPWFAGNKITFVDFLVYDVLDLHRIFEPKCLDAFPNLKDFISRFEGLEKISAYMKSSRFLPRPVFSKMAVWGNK
# hGSTA1-1 = biological target: T2, hGSTA1-1 (Homo sapiens, UniProt P08263); experiment: as above; format: biochemical; conditions: compound 50 µM, 37 °C
# T2 sequence (P08263 1-222): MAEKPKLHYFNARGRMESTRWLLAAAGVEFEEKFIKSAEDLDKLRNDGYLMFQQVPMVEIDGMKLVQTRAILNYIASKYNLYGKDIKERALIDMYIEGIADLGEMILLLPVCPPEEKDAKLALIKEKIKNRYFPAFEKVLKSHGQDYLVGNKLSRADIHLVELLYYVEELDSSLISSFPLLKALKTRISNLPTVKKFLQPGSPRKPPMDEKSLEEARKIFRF
# HL-60 cells = experiment: MTT cell proliferation assay; format: cell-based; conditions: Homo sapiens, HL-60, 72 h, read-out: IC50 anti-proliferative activity
# hGSTP1-1, sequence (P09211 2-210 limits assumed): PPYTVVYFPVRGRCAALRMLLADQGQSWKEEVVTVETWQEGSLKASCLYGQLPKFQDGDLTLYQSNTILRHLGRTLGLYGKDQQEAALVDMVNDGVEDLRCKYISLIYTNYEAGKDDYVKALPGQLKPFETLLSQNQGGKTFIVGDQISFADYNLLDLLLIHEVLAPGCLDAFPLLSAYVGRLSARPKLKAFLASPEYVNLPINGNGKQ
Compound,GSTP1-1 specific activity (hGSTP1-1) [µmol/mg/min],GSTM1-1 specific activity (hGSTM1-1) [µmol/mg/min],GSTA1-1 specific activity (hGSTA1-1) [µmol/mg/min],IC50 (HL-60 cells) [µM]
"CCOC(=O)N1CCN(/[N+]([O-])=N/Oc2ccc([N+](=O)[O-])cc2[N+](=O)[O-])CC1C (stereo not shown) [3a, O^2-(2,4-Dinitrophenyl) 1-[(4-Ethoxycarbonyl)-3-methylpiperazin-1-yl]diazen-1-ium-1,2-diolate]",1.15,112,55.5,–
"CCOC(=O)N1CCN(/[N+]([O-])=N/Oc2ccc([N+](=O)[O-])cc2[N+](=O)[O-])C(C)C1 (stereo not shown) [3b, O^2-(2,4-Dinitrophenyl) 1-[(4-Ethoxycarbonyl)-2-methylpiperazin-1-yl]diazen-1-ium-1,2-diolate]",0.88,110,47.0,–
"CCOC(=O)N1C(C)CN(/[N+]([O-])=N/Oc2ccc([N+](=O)[O-])cc2[N+](=O)[O-])CC1C (stereo not shown) [3c, O^2-(2,4-Dinitrophenyl) 1-[(4-Ethoxycarbonyl)-3,5-dimethylpiperazin-1-yl]diazen-1-ium-1,2-diolate]",1.17,172,70.3,–
"CCOC(=O)N1CC(C)N(/[N+]([O-])=N/Oc2ccc([N+](=O)[O-])cc2[N+](=O)[O-])CC1C (stereo not shown) [3d, O^2-(2,4-Dinitrophenyl) 1-[(4-Ethoxycarbonyl)-2,5-dimethylpiperazin-1-yl]diazen-1-ium-1,2-diolate]",0.14,49,17.6,–
CCOC(=O)N1CCCN(/[N+]([O-])=N/Oc2ccc([N+](=O)[O-])cc2[N+](=O)[O-])CC1 [4a],0.16,38,16.8,–
COC(=O)N1CCN(/[N+]([O-])=N/Oc2ccc([N+](=O)[O-])cc2[N+](=O)[O-])CC1 [4b],0.98,102,45.1,–
CCCOC(=O)N1CCN(/[N+]([O-])=N/Oc2ccc([N+](=O)[O-])cc2[N+](=O)[O-])CC1 [4c],1.2,126.3,59.0,–
"CCOC(=O)N1CCN(/[N+]([O-])=N/Oc2ccc([N+](=O)[O-])cc2[N+](=O)[O-])CC1 [JS-K, O^2-(2,4-dinitrophenyl) 1-[(4-ethoxycarbonyl)piperazin-1-yl]diazen-1-ium-1,2-diolate]",1.36,126,66.3,0.2 to 0.5

# Source: paper PMC2631660 (Bioorganic & medicinal chemistry, 2008)
